Among the data in ChEMBL document CHEMBL5653631, “A Potent and Selective ULK1 Inhibitor Suppresses Autophagy and Sensitizes Cancer Cells to Nutrient Stress” (iScience, 2018) are inhibition and fold change (FC) values, retold here.

Assay [1] deals with Cyclin-dependent kinase-like 3 (Homo sapiens) (UniProt Q8IVW4). The assay is described as follows: Inhibition of human recombinant CDKL3 at 15 nM in presence of ATP by radiometric assay relative to control.
The target of assay [2] is Casein kinase II subunit alpha (Homo sapiens) (UniProt P68400). As to the kind of experiment: Inhibition of human recombinant CK2a1 at 15 nM in presence of ATP by radiometric assay relative to control.
Sequence of Casein kinase II subunit alpha (Homo sapiens) (P68400 whole entry, looked up): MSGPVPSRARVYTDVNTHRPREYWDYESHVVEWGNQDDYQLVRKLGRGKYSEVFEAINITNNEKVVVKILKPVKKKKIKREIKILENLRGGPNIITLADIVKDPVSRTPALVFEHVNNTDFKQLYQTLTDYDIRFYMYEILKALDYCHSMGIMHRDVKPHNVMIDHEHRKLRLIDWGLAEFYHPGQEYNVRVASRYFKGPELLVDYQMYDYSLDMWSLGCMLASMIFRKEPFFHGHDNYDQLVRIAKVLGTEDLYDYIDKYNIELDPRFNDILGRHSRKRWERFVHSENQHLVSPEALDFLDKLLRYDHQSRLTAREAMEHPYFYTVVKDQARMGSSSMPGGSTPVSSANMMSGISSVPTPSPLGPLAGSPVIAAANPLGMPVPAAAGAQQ
Assay [3] has as its target T1, Serine/threonine-protein kinase Sgk1 (Homo sapiens) (UniProt O00141).
T1 sequence (whole entry): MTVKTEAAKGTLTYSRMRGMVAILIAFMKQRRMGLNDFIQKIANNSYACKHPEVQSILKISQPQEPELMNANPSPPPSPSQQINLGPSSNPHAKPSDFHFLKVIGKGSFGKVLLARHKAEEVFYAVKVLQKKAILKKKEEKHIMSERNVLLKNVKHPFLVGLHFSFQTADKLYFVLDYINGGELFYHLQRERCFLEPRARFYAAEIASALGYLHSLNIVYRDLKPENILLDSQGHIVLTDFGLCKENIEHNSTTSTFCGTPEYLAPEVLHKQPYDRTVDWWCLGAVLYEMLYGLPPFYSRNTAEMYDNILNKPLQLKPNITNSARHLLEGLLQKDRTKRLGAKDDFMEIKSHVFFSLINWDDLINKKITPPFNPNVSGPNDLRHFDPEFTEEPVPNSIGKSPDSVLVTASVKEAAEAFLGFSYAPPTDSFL
The assay is described as follows: Inhibition of human recombinant SGK1 at 40 nM in presence of ATP by radiometric assay relative to control.

Assay [4] addresses Tyrosine-protein kinase JAK1 (Homo sapiens) (UniProt P23458). As to the kind of experiment: Inhibition of human recombinant JAK1 at 40 nM related to control ULK1.
The target in assay [5] is Myosin light chain kinase, smooth muscle (Homo sapiens) (UniProt Q15746). As to the kind of experiment: Inhibition of human recombinant smMLCK at 40 nM related to control ULK1.
For assay [6], the target named is Serine/threonine-protein kinase 33 (Homo sapiens) (UniProt Q9BYT3). The assay is described as follows: Inhibition of human recombinant STK33 at 40 nM related to control ULK1.
Sequence of Serine/threonine-protein kinase 33 (Homo sapiens) (Q9BYT3 whole entry, looked up): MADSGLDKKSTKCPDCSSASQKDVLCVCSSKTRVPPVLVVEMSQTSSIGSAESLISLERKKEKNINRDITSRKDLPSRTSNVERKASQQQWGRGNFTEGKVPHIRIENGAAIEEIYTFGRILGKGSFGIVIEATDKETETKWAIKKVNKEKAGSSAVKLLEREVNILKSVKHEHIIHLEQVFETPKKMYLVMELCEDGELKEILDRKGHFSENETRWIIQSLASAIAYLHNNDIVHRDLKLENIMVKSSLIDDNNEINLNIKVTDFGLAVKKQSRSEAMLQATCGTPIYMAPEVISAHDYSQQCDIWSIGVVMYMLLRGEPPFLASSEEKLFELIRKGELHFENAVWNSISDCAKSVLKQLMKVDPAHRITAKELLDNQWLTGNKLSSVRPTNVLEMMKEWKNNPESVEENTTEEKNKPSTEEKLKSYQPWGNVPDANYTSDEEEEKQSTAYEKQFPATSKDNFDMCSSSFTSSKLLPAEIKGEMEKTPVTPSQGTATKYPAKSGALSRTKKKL
The target of assay [7] is T2, Serine/threonine-protein kinase 17B (Homo sapiens) (UniProt O94768).
T2 sequence (whole entry): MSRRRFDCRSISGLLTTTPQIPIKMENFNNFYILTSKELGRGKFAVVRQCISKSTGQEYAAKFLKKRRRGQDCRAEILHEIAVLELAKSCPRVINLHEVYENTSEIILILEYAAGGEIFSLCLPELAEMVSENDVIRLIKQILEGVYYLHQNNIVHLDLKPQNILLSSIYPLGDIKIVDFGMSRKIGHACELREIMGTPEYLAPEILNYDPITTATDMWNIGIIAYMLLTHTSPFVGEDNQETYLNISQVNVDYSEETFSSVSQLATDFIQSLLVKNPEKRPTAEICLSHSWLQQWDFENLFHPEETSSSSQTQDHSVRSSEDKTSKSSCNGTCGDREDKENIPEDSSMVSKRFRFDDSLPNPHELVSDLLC
The assay is described as follows: Inhibition of human recombinant DRAK2 at 500 nM in presence of ATP by radiometric assay relative to control.

Assay [8] deals with Tyrosine-protein kinase Lck (Homo sapiens) (UniProt P06239). As to the kind of experiment: Inhibition of human recombinant LCK at 500 nM in presence of ATP by radiometric assay relative to control.
Sequence of Tyrosine-protein kinase Lck (Homo sapiens) (P06239 2-509 limits assumed): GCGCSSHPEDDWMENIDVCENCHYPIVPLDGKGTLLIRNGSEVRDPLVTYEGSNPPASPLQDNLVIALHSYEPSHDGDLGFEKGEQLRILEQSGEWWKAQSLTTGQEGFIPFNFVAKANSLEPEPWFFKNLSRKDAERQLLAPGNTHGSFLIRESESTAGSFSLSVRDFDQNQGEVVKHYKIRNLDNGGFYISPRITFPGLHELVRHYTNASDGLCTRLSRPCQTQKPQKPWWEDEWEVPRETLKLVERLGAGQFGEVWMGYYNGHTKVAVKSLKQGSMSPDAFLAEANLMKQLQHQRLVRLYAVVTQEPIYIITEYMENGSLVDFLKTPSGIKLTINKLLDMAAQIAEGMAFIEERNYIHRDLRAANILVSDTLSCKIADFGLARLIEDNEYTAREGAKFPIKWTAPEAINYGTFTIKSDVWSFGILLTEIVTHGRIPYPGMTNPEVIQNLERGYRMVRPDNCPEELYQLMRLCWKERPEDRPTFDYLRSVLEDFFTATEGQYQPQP
For assay [9], the target named is MAP/microtubule affinity-regulating kinase 3 (Homo sapiens) (UniProt P27448). The assay is described as follows: Inhibition of human recombinant MARK3 at 500 nM in presence of ATP by radiometric assay relative to control.
Sequence of MAP/microtubule affinity-regulating kinase 3 (Homo sapiens) (P27448 whole entry, looked up): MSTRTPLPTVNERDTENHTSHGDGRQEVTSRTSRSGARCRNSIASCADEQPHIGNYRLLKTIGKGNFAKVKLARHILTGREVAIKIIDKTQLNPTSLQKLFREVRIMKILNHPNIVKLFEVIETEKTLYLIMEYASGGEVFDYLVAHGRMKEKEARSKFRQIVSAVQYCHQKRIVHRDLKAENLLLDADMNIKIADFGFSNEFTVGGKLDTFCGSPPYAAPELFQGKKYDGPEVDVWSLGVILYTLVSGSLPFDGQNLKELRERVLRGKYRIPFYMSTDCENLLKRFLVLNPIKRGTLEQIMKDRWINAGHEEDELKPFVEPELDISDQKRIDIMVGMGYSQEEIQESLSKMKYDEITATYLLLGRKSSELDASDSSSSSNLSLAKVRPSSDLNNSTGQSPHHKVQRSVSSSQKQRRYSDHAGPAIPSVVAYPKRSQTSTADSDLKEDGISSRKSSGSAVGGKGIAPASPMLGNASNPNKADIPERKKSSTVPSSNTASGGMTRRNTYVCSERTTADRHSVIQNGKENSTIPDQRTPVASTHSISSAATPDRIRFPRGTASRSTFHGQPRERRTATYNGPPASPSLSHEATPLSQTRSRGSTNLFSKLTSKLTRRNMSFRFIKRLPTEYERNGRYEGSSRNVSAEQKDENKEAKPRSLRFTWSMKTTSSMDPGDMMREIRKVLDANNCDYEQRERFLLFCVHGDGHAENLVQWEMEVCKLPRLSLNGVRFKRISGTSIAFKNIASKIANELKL
Assay [10] deals with T3, MAPK/MAK/MRK overlapping kinase (Homo sapiens) (UniProt Q9UQ07).
T3 sequence (whole entry): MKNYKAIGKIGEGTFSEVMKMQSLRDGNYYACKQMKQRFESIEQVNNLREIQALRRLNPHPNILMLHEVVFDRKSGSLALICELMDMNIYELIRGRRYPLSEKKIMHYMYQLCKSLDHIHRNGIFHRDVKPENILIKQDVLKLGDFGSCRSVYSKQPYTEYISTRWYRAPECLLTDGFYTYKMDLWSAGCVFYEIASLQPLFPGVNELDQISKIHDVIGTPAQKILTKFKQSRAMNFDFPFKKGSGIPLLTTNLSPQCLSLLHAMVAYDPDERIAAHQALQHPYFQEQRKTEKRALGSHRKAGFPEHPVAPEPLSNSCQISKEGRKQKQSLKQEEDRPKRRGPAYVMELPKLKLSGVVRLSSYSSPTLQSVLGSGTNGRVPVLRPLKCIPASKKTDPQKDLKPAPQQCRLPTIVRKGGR
As to the kind of experiment: Inhibition of human recombinant MOK at 500 nM in presence of ATP by radiometric assay relative to control.

In assay [11] the target is TGF-beta receptor type-2 (Homo sapiens) (UniProt P37173). As to the kind of experiment: Inhibition of human recombinant TGFbR2 at 500 nM in presence of ATP by radiometric assay relative to control.
Sequence of TGF-beta receptor type-2 (Homo sapiens) (P37173 whole entry): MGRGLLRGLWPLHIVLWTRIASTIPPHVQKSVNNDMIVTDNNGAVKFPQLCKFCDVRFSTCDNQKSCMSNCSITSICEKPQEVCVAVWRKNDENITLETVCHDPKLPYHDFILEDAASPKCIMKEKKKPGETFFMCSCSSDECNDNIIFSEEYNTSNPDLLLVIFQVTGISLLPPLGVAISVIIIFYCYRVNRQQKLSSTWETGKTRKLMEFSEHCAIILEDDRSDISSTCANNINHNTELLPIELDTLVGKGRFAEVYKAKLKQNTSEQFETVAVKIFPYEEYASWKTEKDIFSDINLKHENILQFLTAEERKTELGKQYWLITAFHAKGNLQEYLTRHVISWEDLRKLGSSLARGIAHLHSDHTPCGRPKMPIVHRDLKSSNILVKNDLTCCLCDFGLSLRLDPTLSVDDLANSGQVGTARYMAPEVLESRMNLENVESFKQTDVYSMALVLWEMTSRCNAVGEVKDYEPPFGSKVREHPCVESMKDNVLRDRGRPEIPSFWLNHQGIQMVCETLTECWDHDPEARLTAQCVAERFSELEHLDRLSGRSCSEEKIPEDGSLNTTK
The target of assay [12] is T4, Ephrin type-A receptor 1 (Homo sapiens) (UniProt P21709).
T4 sequence (whole entry): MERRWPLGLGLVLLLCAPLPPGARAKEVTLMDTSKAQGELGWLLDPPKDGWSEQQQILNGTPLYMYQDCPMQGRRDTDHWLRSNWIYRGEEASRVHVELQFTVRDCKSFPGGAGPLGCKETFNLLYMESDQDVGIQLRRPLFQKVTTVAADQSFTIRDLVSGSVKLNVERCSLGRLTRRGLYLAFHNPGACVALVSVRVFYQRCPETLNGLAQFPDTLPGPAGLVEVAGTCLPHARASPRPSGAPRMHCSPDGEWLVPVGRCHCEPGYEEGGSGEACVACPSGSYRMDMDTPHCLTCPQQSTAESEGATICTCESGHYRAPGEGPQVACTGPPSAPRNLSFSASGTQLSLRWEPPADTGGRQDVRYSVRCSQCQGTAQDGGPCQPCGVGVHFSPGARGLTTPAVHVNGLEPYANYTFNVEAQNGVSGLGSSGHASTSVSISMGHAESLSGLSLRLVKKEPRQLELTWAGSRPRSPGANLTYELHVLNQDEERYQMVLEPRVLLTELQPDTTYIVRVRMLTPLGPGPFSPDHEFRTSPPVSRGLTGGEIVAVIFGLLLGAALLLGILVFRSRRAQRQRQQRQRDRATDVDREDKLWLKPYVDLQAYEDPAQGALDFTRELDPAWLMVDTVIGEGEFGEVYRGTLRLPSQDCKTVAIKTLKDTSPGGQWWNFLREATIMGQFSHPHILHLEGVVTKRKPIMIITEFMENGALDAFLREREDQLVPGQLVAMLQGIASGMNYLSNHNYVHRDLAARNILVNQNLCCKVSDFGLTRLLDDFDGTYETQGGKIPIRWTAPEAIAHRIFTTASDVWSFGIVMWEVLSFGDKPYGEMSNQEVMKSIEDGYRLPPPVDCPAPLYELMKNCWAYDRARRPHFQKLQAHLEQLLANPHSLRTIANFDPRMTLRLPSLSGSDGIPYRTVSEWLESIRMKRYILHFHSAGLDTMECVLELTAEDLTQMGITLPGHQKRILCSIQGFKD
As to the kind of experiment: Inhibition of human recombinant EphA1 at 500 nM related to control ULK1.

Sequence of Tyrosine-protein kinase JAK1 (Homo sapiens) (P23458 whole entry): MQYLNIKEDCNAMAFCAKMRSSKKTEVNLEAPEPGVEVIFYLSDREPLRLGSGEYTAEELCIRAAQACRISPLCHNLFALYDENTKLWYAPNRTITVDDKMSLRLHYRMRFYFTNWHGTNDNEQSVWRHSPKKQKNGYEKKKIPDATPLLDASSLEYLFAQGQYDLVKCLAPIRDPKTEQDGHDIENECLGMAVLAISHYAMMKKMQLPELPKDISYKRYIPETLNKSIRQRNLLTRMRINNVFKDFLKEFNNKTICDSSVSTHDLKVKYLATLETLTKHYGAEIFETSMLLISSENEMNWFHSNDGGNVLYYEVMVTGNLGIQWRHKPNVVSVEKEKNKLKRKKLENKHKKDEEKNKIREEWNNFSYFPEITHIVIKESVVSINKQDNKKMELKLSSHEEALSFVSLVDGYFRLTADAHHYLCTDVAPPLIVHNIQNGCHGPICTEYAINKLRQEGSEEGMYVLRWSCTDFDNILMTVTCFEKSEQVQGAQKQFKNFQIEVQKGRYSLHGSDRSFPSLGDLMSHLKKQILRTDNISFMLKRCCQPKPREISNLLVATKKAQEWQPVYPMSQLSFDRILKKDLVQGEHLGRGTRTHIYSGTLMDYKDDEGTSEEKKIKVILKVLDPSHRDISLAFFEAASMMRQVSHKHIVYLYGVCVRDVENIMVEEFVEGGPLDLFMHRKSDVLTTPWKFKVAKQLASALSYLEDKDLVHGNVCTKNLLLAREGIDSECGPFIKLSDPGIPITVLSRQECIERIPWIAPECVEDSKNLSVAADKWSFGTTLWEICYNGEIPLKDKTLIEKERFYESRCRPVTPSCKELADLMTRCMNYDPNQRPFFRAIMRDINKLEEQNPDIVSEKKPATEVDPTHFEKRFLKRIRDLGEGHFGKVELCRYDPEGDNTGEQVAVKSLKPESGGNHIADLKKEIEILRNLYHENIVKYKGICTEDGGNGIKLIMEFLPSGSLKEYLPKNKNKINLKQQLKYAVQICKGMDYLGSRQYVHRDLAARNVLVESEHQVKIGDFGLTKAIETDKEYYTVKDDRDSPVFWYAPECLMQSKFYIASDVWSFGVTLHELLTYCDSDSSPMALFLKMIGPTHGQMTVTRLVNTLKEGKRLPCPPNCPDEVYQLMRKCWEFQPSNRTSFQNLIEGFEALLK
Sequence of Cyclin-dependent kinase-like 3 (Homo sapiens) (Q8IVW4 whole entry, looked up): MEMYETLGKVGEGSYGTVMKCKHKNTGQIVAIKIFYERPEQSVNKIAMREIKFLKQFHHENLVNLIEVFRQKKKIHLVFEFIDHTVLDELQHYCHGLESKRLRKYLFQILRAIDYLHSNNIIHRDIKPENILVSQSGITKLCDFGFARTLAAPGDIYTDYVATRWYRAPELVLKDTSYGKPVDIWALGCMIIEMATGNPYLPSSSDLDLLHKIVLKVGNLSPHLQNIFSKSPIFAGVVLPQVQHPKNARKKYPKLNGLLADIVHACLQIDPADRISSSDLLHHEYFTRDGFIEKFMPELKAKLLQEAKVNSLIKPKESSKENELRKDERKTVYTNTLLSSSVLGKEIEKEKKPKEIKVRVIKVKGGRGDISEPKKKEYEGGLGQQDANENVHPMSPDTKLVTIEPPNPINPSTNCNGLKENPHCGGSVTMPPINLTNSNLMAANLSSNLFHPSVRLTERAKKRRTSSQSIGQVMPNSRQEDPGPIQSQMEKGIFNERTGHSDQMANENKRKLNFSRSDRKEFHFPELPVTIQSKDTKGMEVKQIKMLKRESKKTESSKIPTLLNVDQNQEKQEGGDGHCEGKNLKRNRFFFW

With `CC(C)[C@H](NC(=O)c1cc(-c2cnn3cc(-c4ccc(OCCN5CCCCC5)cc4)cnc23)cs1)C(F)(F)F`, the inhibition (in general, the percentage by which the read-out fell short of the control) in [1] was found to be 34%; in assay [2] it was 0%.
Consider `O=C(N[C@@H](C1CC1)C(F)(F)F)c1cc(-c2cnn3cc(-c4ccc(F)cc4)cnc23)cs1`, for which, in [3], the inhibition is 7%. Further, the fold change (FC) is 0 in assay [4], 0.07 in assay [5] and 0.26 in assay [6].
As to `CNC(=O)c1ccccc1Oc1nc(Nc2cc(OC)c(OC)c(OC)c2)ncc1Br`, the inhibition in assay [7] is 6%; in assay [8] it was 13%; in [9], 45%; in assay [10] it was 2%; in assay [11], 2%. Besides, in [12], the fold change (FC) worked out at 0.18.
